# Where two headings read alike, the source gives them in different places. Peptide text beside a SMILES is read from it.
# Molecular target: T1, human APJ receptor (hAPJ) (Homo sapiens, UniProt P35414)
# T1 construct: expressed in transfected cells
# T1 sequence (P35414 1-380): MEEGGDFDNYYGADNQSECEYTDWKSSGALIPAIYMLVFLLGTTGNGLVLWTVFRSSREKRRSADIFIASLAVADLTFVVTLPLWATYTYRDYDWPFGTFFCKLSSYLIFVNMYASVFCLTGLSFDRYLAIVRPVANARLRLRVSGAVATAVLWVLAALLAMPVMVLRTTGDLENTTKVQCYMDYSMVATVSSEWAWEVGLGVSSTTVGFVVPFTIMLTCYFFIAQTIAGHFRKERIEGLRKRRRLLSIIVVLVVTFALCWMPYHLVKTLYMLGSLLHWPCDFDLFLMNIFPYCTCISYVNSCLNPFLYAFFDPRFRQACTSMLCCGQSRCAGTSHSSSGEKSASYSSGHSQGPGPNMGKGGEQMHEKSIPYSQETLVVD
# Test: HTRF cAMP assay: inhibition of NKH477-stimulated cAMP in HEK cells stably expressing hAPJ
# Format: cell-based
# Details: for Emax: HEK293, read-out: % IA, bound stated; for % IA (cAMP inhibition, hAPJ HEK): intrinsic activity; for Ranking: composite class of EC50 (hAPJ), % IA and % histamine or formal (+) charge; for inhibition of NKH477-stimulated increase in cAMP, dose dependent: concentration response curves, FIGS. 1 and 2, HEK cells stably expressing APJ
# Source text: HTRF cAMP Assay and IP-One Assay (Cisbio)
# HTRF (homogeneous time resolved fluorescence) is a technology developed by Cisbio Bioassays based on TR-FRET (time-resolved fluorescence resonance energy transfer). Cisbio Bioassays has developed a wide selection of HTRF-based assays compatible with whole cells, thereby enabling functional assays to run under more physiological conditions. The IP-One assays are competitive immunoassays using cryptate-labeled anti-IP1 monoclonal antibody and d2-labeled IP1. IP1 is a relatively stable downstream metabolite of IP3, and accumulates in cells following Gq receptor activation.
# cAMP kits based on a competitive immunoassay using cryptate-labeled anti-cAMP antibody and d2-labeled cAMP were used to assay the effects of APJ compounds of the present invention. […] Cells are treated with 1 nG/mL doxycycline and seeded in all white 96 well plates @40 k/well overnight.
# [1] = EC50 (cAMP inhibition, hAPJ HEK), Table 6, hAPJ HEK cells, NKH477-stimulated cAMP
# [2] = EC50 (hAPJ), inhibition of cAMP production, bound stated, HTRF cAMP Assay, per data of Table 6
# [3] = HTRF cAMP Assay, per data of Table 6
# [4] = HTRF cAMP Assay, per data of Table 6, read-out: EC50 (hAPJ), inhibition of cAMP production, bound stated
# [5] = Table 6, hAPJ HEK cells, NKH477-stimulated cAMP, read-out: EC50 (cAMP inhibition, hAPJ HEK)
EC50 [4] [nM],EC50 [5] [nM],Compound,EC50 [1] [nM],EC50 [2] [nM],Emax [3] [%],"% IA (cAMP inhibition, hAPJ HEK) (Table 6, hAPJ HEK cells) [%]",Ranking,"inhibition of NKH477-stimulated increase in cAMP, dose dependent"
,,CCCCCCCCCCCCCCCC(=O)N[C@H](C(=O)N[C@H](C(=O)N[C@@H](CC(=O)O)C(=O)N[C@@H](CCCNC(=N)N)C(=O)N[C@@H](CO)C(=O)N[C@@H](CO)C(=O)N[C@@H](CCC(N)=O)C(=O)N[C@@H](CCC(=O)O)C(=O)N[C@H](CCCCN)C(=O)N[C@@H](CCCNC(=N)N)C(=O)N[C@@H](CCCNC(=N)N)C(=O)N[C@@H](CO)C(=O)N[C@@H](C)C(=O)N[C@@H](CC(=O)O)C(=O)N[C@H](C(=O)N[C@@H](Cc1ccccc1)C(=O)N[C@H](C(N)=O)[C@@H](C)CC)[C@@H](C)CC)C(C)C)[C@@H](C)O [Compound 6] (HELM PEPTIDE1{[CCCCCCCCCCCCCCCC(=O)[*:2]].T.V.D.R.S.S.Q.E.[dK].R.R.S.A.D.I.F.I.[am]}$$$$V2.0),19,25 to 50,50 to 79,77,"*** (EC50 25-50 nM (hAPJ), % IA 50-79% and either % histamine≦35% or formal (+) charge≦1)",
,,CCCCCCCCCCCCCCCC(=O)N[C@H](C(=O)N[C@H](C(=O)N[C@@H](CC(=O)O)C(=O)N[C@@H](CCCNC(=N)N)C(=O)N[C@@H](CO)C(=O)N[C@@H](CO)C(=O)N[C@@H](CCCCN)C(=O)N[C@@H](CCC(=O)O)C(=O)N[C@H](CCCCN)C(=O)N[C@@H](CCCNC(=N)N)C(=O)N[C@@H](CCCNC(=N)N)C(=O)N[C@@H](CO)C(=O)N[C@@H](C)C(=O)N[C@@H](CC(=O)O)C(=O)N[C@H](C(=O)N[C@@H](Cc1ccccc1)C(=O)N[C@H](C(N)=O)[C@@H](C)CC)[C@@H](C)CC)C(C)C)[C@@H](C)O [Compound 7] (HELM PEPTIDE1{[CCCCCCCCCCCCCCCC(=O)[*:2]].T.V.D.R.S.S.K.E.[dK].R.R.S.A.D.I.F.I.[am]}$$$$V2.0),9,25 to 50,50 to 79,59,"*** (EC50 25-50 nM (hAPJ), % IA 50-79% and either % histamine≦35% or formal (+) charge≦1)",
,,CCCCCCCCCCCCCCCC(=O)N[C@H](C(=O)N[C@H](C(=O)N[C@@H](CCCCN)C(=O)N[C@@H](CCCNC(=N)N)C(=O)N[C@@H](CO)C(=O)N[C@@H](CO)C(=O)N[C@@H](CCC(=O)O)C(=O)N[C@H](CCCCN)C(=O)N[C@@H](CCCNC(=N)N)C(=O)N[C@@H](CCCNC(=N)N)C(=O)N[C@@H](CO)C(=O)N[C@@H](C)C(=O)N[C@@H](CC(=O)O)C(=O)N[C@H](C(=O)N[C@@H](Cc1ccccc1)C(=O)N[C@H](C(N)=O)[C@@H](C)CC)[C@@H](C)CC)C(C)C)[C@@H](C)O [Compound 21] (HELM PEPTIDE1{[CCCCCCCCCCCCCCCC(=O)[*:2]].T.V.K.R.S.S.E.[dK].R.R.S.A.D.I.F.I.[am]}$$$$V2.0),9,≤ 25,≥ 80,85,"**** (EC50≦25 nM (hAPJ), % IA≧80% and either % histamine>35% or formal (+) charge>1)",inhibited
,,CCCCCCCCCCCCCCCC(=O)N[C@H](C(=O)N[C@H](C(=O)N[C@@H](CC(=O)O)C(=O)N(C)[C@@H](CCCNC(=N)N)C(=O)N[C@@H](CO)C(=O)N[C@@H](CO)C(=O)N[C@@H](CCC(=O)O)C(=O)N[C@H](CCCCN)C(=O)N[C@@H](CCCNC(=N)N)C(=O)N[C@@H](CCCNC(=N)N)C(=O)N[C@@H](CO)C(=O)N[C@@H](C)C(=O)N[C@@H](CC(=O)O)C(=O)N[C@H](C(=O)N[C@@H](Cc1ccccc1)C(=O)N[C@H](C(N)=O)[C@@H](C)CC)[C@@H](C)CC)C(C)C)[C@@H](C)O [Compound 32] (HELM PEPTIDE1{[CCCCCCCCCCCCCCCC(=O)[*:2]].T.V.D.[meR].S.S.E.[dK].R.R.S.A.D.I.F.I.[am]}$$$$V2.0),24,≤ 25,≥ 80,97,"**** (EC50≦25 nM (hAPJ), % IA≧80% and either % histamine>35% or formal (+) charge>1)",inhibited
25 to 50,32,CCCCCCCCCCCCCCCC(=O)N[C@@H](CC(=O)O)C(=O)N[C@H](C(=O)N[C@@H](Cc1ccccc1)C(=O)N[C@@H](CCCNC(=N)N)C(=O)N[C@@H](CO)C(=O)N[C@@H](CO)C(=O)N[C@@H](CCC(=O)O)C(=O)N[C@H](CCCCN)C(=O)N[C@@H](CCCNC(=N)N)C(=O)N[C@@H](CCCNC(=N)N)C(=O)N[C@@H](CO)C(=O)N[C@@H](C)C(=O)N[C@@H](CC(=O)O)C(=O)N[C@@H](CC(N)=O)C(=O)N[C@@H](Cc1ccccc1)C(=O)N[C@H](C(N)=O)[C@@H](C)CC)C(C)C [Compound 20] (HELM PEPTIDE1{[CCCCCCCCCCCCCCCC(=O)[*:2]].D.V.F.R.S.S.E.[dK].R.R.S.A.D.N.F.I.[am]}$$$$V2.0),,,50 to 79,98,"*** (EC50 25-50 nM (hAPJ), % IA 50-79% and either % histamine≦35% or formal (+) charge≦1)",
,,CCCCCCCCCCCCCCCC(=O)N[C@@H](CC(=O)O)C(=O)N[C@H](C(=O)N[C@@H](Cc1c[nH]cn1)C(=O)N[C@@H](CCCNC(=N)N)C(=O)N[C@@H](CO)C(=O)N[C@@H](CO)C(=O)N[C@@H](CCC(=O)O)C(=O)N[C@H](CCCCN)C(=O)N[C@@H](CCCNC(=N)N)C(=O)N[C@@H](CCCNC(=N)N)C(=O)N[C@@H](CO)C(=O)N[C@@H](C)C(=O)N[C@@H](CC(=O)O)C(=O)N[C@H](C(=O)N[C@@H](Cc1ccccc1)C(=O)N[C@H](C(N)=O)[C@@H](C)CC)[C@@H](C)CC)C(C)C [Compound 35] (HELM PEPTIDE1{[CCCCCCCCCCCCCCCC(=O)[*:2]].D.V.H.R.S.S.E.[dK].R.R.S.A.D.I.F.I.[am]}$$$$V2.0),32,25 to 50,50 to 79,90,"*** (EC50 25-50 nM (hAPJ), % IA 50-79% and either % histamine≦35% or formal (+) charge≦1)",
,40,CCCCCCCCCCCCCCCC(=O)N[C@H](C(=O)N[C@H](C(=O)N[C@@H](CC(=O)O)C(=O)N[C@@H](CCCNC(=N)N)C(=O)N[C@@H](CO)C(=O)N[C@@H](CO)C(=O)N[C@@H](CCCNC(=N)N)C(=O)N[C@@H](CCC(=O)O)C(=O)N[C@H](CCCCN)C(=O)N[C@@H](CCCNC(=N)N)C(=O)N[C@@H](CCCNC(=N)N)C(=O)N[C@@H](CCC(=O)O)C(=O)N[C@@H](CO)C(=O)N[C@@H](C)C(=O)N[C@@H](CC(=O)O)C(=O)N[C@H](C(=O)N[C@@H](Cc1ccccc1)C(=O)N[C@H](C(N)=O)[C@@H](C)CC)[C@@H](C)CC)C(C)C)[C@@H](C)O [Compound 5] (HELM PEPTIDE1{[CCCCCCCCCCCCCCCC(=O)[*:2]].T.V.D.R.S.S.R.E.[dK].R.R.E.S.A.D.I.F.I.[am]}$$$$V2.0),,,,41,"* (EC50≦50 nM (hAPJ), % IA<50%)",
≤ 25,2,CCCCCCCCCCCCCCCC(=O)N[C@@H](CC(=O)O)C(=O)N[C@H](C(=O)N[C@@H](Cc1c[nH]cn1)C(=O)N[C@@H](CCCNC(=N)N)C(=O)N[C@@H](CO)C(=O)N[C@@H](CO)C(=O)N[C@@H](CCC(=O)O)C(=O)N[C@H](CCCCN)C(=O)N[C@@H](CCCNC(=N)N)C(=O)N[C@@H](CCCNC(=N)N)C(=O)N[C@@H](CO)C(=O)N[C@@H](C)C(=O)N[C@@H](CC(=O)O)C(=O)N[C@@H](CCC(N)=O)C(=O)N[C@@H](Cc1ccccc1)C(=O)N[C@H](C(N)=O)[C@@H](C)CC)C(C)C [Compound 36] (HELM PEPTIDE1{[CCCCCCCCCCCCCCCC(=O)[*:2]].D.V.H.R.S.S.E.[dK].R.R.S.A.D.Q.F.I.[am]}$$$$V2.0),,,≥ 80,101,"***** (EC50≦25 nM (hAPJ), % IA≧80% and either % histamine≦35% or formal (+) charge≦1)",inhibited

Compound,EC50 [4] [nM],EC50 [5] [nM],EC50 [1] [nM],EC50 [2] [nM],Emax [3] [%],"% IA (cAMP inhibition, hAPJ HEK) (Table 6, hAPJ HEK cells) [%]",Ranking,"inhibition of NKH477-stimulated increase in cAMP, dose dependent"
"CCCCCCCCCCCCCCCC(=O)N[C@H](C(=O)N[C@H](C(=O)N[C@@H](CC(=O)O)C(=O)N[C@@H](CCCNC(=N)N)C(=O)N[C@@H](CO)C(=O)N[C@@H](CO)C(=O)N[C@@H](CCC(=O)O)C(=O)N[C@H](CCCCN)C(=O)N[C@@H](CCCNC(=N)N)C(=O)N[C@@H](CCCNC(=N)N)C(=O)N[C@@H](CO)C(=O)N[C@@H](C)C(=O)N[C@@H](CC(=O)O)C(=O)N[C@@H](Cc1ccc(CN)cc1)C(=O)N[C@@H](Cc1ccccc1)C(=O)N[C@H](C(N)=O)[C@@H](C)CC)C(C)C)[C@@H](C)O [Compound 34, TVDRSSEkRRSAD(p-CH2NH2-Phe)FI] (HELM PEPTIDE1{[CCCCCCCCCCCCCCCC(=O)[*:2]].T.V.D.R.S.S.E.[dK].R.R.S.A.D.[NCc1ccc(C[C@H](N[*:1])C(=O)[*:2])cc1].F.I.[am]}$$$$V2.0)",25 to 50,30,,,50 to 79,104,"*** (EC50 25-50 nM (hAPJ), % IA 50-79% and either % histamine≦35% or formal (+) charge≦1)",
